Results from US20110045101A1, “FUNGICIDAL SUBSTITUTED AZOLES” (E.I. Du Pont De Nemours and Company, priority 2009, published 2011).
Marks after values point to notes of the source that are not given here.

Tests used:
Assay type in all cases: in vivo
Conditions in all cases: 100 = 100% disease control
Botrytis cinerea = assay: Test C: tomato Botrytis on tomato seedlings, sprayed the day before inoculation, visual disease rating
Procedure, shortened: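 Tomato seedlings sprayed to run-off with compound suspended in acetone/water with 250 ppm Trem 014 surfactant, at 200 ppm (≈500 g/ha) or 40 ppm where marked, one day before Botrytis cinerea inoculation. Disease rated visually.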

Septoria nodorum = assay: Test F: wheat glume blotch on wheat seedlings, sprayed the day before inoculation, visual disease rating
Procedure, shortened: (§1)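 Compounds were dissolved in acetone (3% of final volume), then suspended in 50/50 acetone/water with 250 ppm Trem 014 surfactant and sprayed to run-off on test plants. A 200 ppm suspension equals 500 g/ha. Ratings are at 200 ppm unless flagged as 40 ppm.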

Septoria tritici = assay: Test G: wheat leaf blotch on wheat seedlings, sprayed the day before inoculation, visual disease rating
Procedure, shortened: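 Spray to run-off, 200 ppm (≈500 g/ha; starred = 40 ppm), acetone/water 50/50 + 250 ppm Trem® 014. Spore inoculation +1 d. 24° C saturated 48 h → 20° C 19 d. Visual rating.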

Alternaria solani = assay: Test D: tomato early blight, sprayed the day before inoculation, visual disease rating
Procedure, shortened: as §1

[1] = tested on: Puccinia recondita f. sp. tritici; assay: Test H: wheat leaf rust, test suspension sprayed after inoculation of wheat seedlings, visual disease rating
Procedure, shortened: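 Wheat seedlings inoculated with P. recondita spores, held 24 h saturated at 20 °C, then 2 days in growth chamber at 20 °C; compound suspension (acetone/water with Trem 014) sprayed to run-off afterwards. Rated visually; 200 ppm (≈500 g/ha) unless marked *, which denotes 40 ppm.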

[2] = tested on: Puccinia recondita f. sp. tritici; assay: Test I: wheat leaf rust on wheat seedlings, sprayed the day before inoculation, visual disease rating
Procedure, shortened: as §1

[3] = tested on: Erysiphe graminis f. sp. tritici; assay: Test J: wheat powdery mildew on wheat seedlings, sprayed the day before inoculation, visual disease rating
Procedure, shortened: as §1

[4] = 200 ppm, 0 = no control relative to controls
[5] = 40 ppm (marked *), 0 = no control

Row | SMILES | Test C disease control rating (Botrytis cinerea; [4]) | Test F disease control rating (Septoria nodorum; [4]) | Test G disease control rating (Septoria tritici; [4]) | Test D disease control rating (Alternaria solani; [4]) | Test H disease control rating [1, 4] | Test I disease control rating [2, 4] | Test J disease control rating [3, 4] | also measured
1 | Cc1ccc(-n2c(Br)nc(Br)c2-c2c(F)ccc(F)c2Cl)cc1 [compound 460] | – | – | – | – | – | – | – | Test C disease control rating (Botrytis cinerea; 40 ppm (marked *)): 99* %; Test F disease control rating (Septoria nodorum; 40 ppm (marked *)): 0* %; Test G disease control rating (Septoria tritici; 40 ppm (marked *)): 97* %; Test D disease control rating (Alternaria solani; 40 ppm (marked *)): 85* %; Test H disease control rating ([1]; 40 ppm (marked *)): 0* %; Test I disease control rating ([2]; 40 ppm (marked *)): 93* %; Test J disease control rating ([3]; 40 ppm (marked *)): 96* %
2 | COc1cc(F)c(-c2c(Cl)nc(C)n2-c2ccc(Cl)nc2)c(F)c1 [compound 739] | 100% | 100% | 100% | 100% | 100% | 100% | 100% | –
3 | Fc1ccc(-n2c(Cl)nc(Br)c2-c2c(F)ccc(F)c2F)cc1 [compound 352] | 100% | 87% | 92% | 100% | 18% | 97% | 77% | –
4 | Cc1nc(Cl)c(-c2c(F)cc(F)cc2F)n1-c1ccc(OC(F)F)cc1 [compound 610] | 99% | 99% | 99% | 100% | 100% | 100% | 100% | –
5 | Fc1cccc(F)c1-c1c(Br)nc(Br)n1-c1cccnc1Cl [compound 618] | 98% | 0% | 98% | 85% | 99% | 99% | 97% | –
6 | Fc1cccc(-n2c(Br)nc(Cl)c2-c2c(F)cc(F)cc2F)c1 [compound 367] | 99% | 89% | 90% | 100% | 9% | 98% | 97% | –
7 | Cc1ncn(-c2ccc(Cl)c(F)c2)c1-c1sc(Cl)nc1Cl [compound 377] | 0% | 0% | 3% | 0% | 0% | 27% | 33% | –
8 | COc1cc(F)c(-c2c(Cl)nc(Cl)n2-c2cncc(F)c2)c(F)c1 [compound 728] | 100% | 100% | 99% | 100% | 100% | 100% | 100% | –
9 | COc1cc(F)c(-c2c(Cl)nc(N)n2-c2ccc(Cl)cc2)c(F)c1 [compound 638] | 99% | 55% | 99% | 99% | 0% | 95% | 56% | –
10 | Fc1cc(-n2c(Br)nc(Br)c2-c2c(F)ccc(F)c2Cl)ccc1Cl [compound 459] | – | – | – | – | – | – | – | Test C disease control rating (Botrytis cinerea; 40 ppm (marked *)): 99* %; Test F disease control rating (Septoria nodorum; 40 ppm (marked *)): 0* %; Test G disease control rating (Septoria tritici; 40 ppm (marked *)): 95* %; Test D disease control rating (Alternaria solani; 40 ppm (marked *)): 63* %; Test H disease control rating ([1]; 40 ppm (marked *)): 9* %; Test I disease control rating ([2]; 40 ppm (marked *)): 98* %; Test J disease control rating ([3]; 40 ppm (marked *)): 98* %
11 | COc1cc(F)c(-n2c(Cl)nc(C)c2-c2ccc(Cl)cc2)c(F)c1 [compound 396] | – | – | – | – | – | – | – | Test C disease control rating (Botrytis cinerea; [5]): 100* %; Test F disease control rating (Septoria nodorum; [5]): 99* %; Test G disease control rating (Septoria tritici; [5]): 93* %; Test D disease control rating (Alternaria solani; [5]): 100* %; Test H disease control rating [1, 5]: 0* %; Test I disease control rating [2, 5]: 100* %; Test J disease control rating [3, 5]: 99* %
12 | COc1cc(F)c(-c2c(Cl)nc(C)n2-c2cccc(Cl)c2)c(F)c1 [compound 500] | 98% | 100% | 94% | 100% | 98% | 100% | 100% | –
13 | COc1nc(Cl)ccc1-n1c(Cl)nc(Cl)c1-c1c(F)cccc1F [compound 619] | 99% | 0% | 96% | 53% | 51% | 98% | 99% | –
14 | COc1cc(F)c(-c2c(Cl)nc(C)n2Cc2ccc(C)cc2)c(F)c1 [compound 296] | – | – | – | – | – | – | – | Test C disease control rating (Botrytis cinerea; 200 ppm, 0 = no control): 100%; Test F disease control rating (Septoria nodorum; 200 ppm, 0 = no control): 86%; Test G disease control rating (Septoria tritici; 200 ppm, 0 = no control): 96%; Test D disease control rating (Alternaria solani; 200 ppm, 0 = no control): 96%; Test H disease control rating ([1]; 200 ppm, 0 = no control): 17%; Test I disease control rating ([2]; 200 ppm, 0 = no control): 99%; Test J disease control rating ([3]; 200 ppm, 0 = no control): 97%
15 | COc1ccc(F)c(-c2c(Cl)nc(C)n2-c2ccc(Cl)cc2)c1Cl [compound 519] | 100% | 100% | 97% | 100% | 0% | 100% | 100% | –
16 | COc1cc(F)c(-c2c(C)nc(Br)n2-c2ccc(C(F)(F)F)nc2)c(F)c1 [compound 731] | 99% | 99% | 100% | 100% | 0% | 99% | 100% | –
17 | COc1cc(F)c(-c2c(Br)nc(Br)n2-c2ccc(C)cc2)c(F)c1 [compound 524] | – | – | – | – | – | – | 97% | Test C disease control rating (Botrytis cinerea; 40 ppm (marked *)): 99* %; Test F disease control rating (Septoria nodorum; 40 ppm (marked *)): 60* %; Test G disease control rating (Septoria tritici; 40 ppm (marked *)): 98* %; Test D disease control rating (Alternaria solani; 40 ppm (marked *)): 100* %; Test H disease control rating ([1]; 40 ppm (marked *)): 85* %; Test I disease control rating ([2]; 40 ppm (marked *)): 99* %
18 | COc1ccc(F)c(-c2c(Cl)nc(C)n2-c2ccc(Br)cc2)c1F [compound 582] | 100% | 99% | 97% | 100% | 15% | 99% | 100% | –
19 | Fc1ccc(F)c(-c2c(Cl)nc(Br)n2Cc2ccc(Cl)cc2)c1F [compound 286] | – | – | – | – | – | – | – | Test C disease control rating (Botrytis cinerea; 200 ppm, 0 = no control): 99%; Test F disease control rating (Septoria nodorum; 200 ppm, 0 = no control): 79%; Test G disease control rating (Septoria tritici; 200 ppm, 0 = no control): 95%; Test D disease control rating (Alternaria solani; 200 ppm, 0 = no control): 96%; Test H disease control rating ([1]; 200 ppm, 0 = no control): 64%; Test I disease control rating ([2]; 200 ppm, 0 = no control): 99%; Test J disease control rating ([3]; 200 ppm, 0 = no control): 100%
20 | COC(=O)c1ccc(-n2cnc(Cl)c2-c2c(F)cccc2F)cc1 [compound 614] | – | – | – | – | – | – | – | Test C disease control rating (Botrytis cinerea; 40 ppm (marked *)): 89* %; Test F disease control rating (Septoria nodorum; 40 ppm (marked *)): 0* %; Test G disease control rating (Septoria tritici; 40 ppm (marked *)): 92* %; Test D disease control rating (Alternaria solani; 40 ppm (marked *)): 0* %; Test H disease control rating ([1]; 40 ppm (marked *)): 0* %; Test I disease control rating ([2]; 40 ppm (marked *)): 28* %; Test J disease control rating ([3]; 40 ppm (marked *)): 0* %
